Source: US20260042731A1, “(2,4-DICHLOROPHENOXY)ACETIC ACID ANALOGS” (CORTEVA AGRISCIENCE LLC, priority 2022, published 2026)
Where two headings read alike, the source gives them in different places.

What was measured:
[1] = tested on: Amaranthus rudis (AMATA), tall water hemp; assay: Postemergence herbicide evaluation, growth of Amaranthus rudis (AMATA); format: in vivo; conditions: Amaranthus tuberculatus, post-emergence, read-out: Ave. AMATA
[2] = tested on: Ambrosia artemisiifolia (AMBEL), common ragweed; assay: Postemergence herbicide evaluation, growth of Ambrosia artemisiifolia (AMBEL); format: in vivo; conditions: Ambrosia artemisiifolia, post-emergence, read-out: AVE. AMBEL
[3] = tested on: Abutilon theophrasti (ABUTH), velvetleaf; assay: Postemergence herbicide evaluation, growth of Abutilon theophrasti (ABUTH); format: in vivo; conditions: Abutilon theophrasti, post-emergence, read-out: AVE. ABUTH
[4] = tested on: weeds ABUTH, AMATA, AMBEL, CHEAL, ERICA; assay: Postemergence herbicide evaluation, overall average % weed control across ABUTH, AMATA, AMBEL, CHEAL and ERICA; format: in vivo; conditions: post-emergence, read-out: Overall Ave % Weed Control
[5] = tested on: Chenopodium album (CHEAL), common lambsquarters; assay: Postemergence herbicide evaluation, growth of Chenopodium album (CHEAL); format: in vivo; conditions: Chenopodium album, post-emergence, read-out: Ave. CHEAL
[6] = Volatility of compounds measured by thermogravimetric analysis (TGA); format: physicochemical

SMILES | pest or weed control at 280 g/ha ([1]; 168 h) [%] | pest or weed control at 560 g/ha ([1]; 168 h) [%] | pest or weed control at 280 g/ha ([1]; 336 h) [%] | pest or weed control at 560 g/ha ([1]; 336 h) [%] | pest or weed control at 280 g/ha ([1]; 504 h) [%] | pest or weed control at 560 g/ha ([1]; 504 h) [%] | pest or weed control at 280 g/ha ([2]; 168 h) [%] | pest or weed control at 560 g/ha ([2]; 168 h) [%] | pest or weed control at 280 g/ha ([2]; 336 h) [%] | pest or weed control at 560 g/ha ([2]; 336 h) [%] | pest or weed control at 280 g/ha ([2]; 504 h) [%] | pest or weed control at 560 g/ha ([2]; 504 h) [%] | pest or weed control at 280 g/ha ([3]; 168 h) [%] | pest or weed control at 280 g/ha ([3]; 504 h) [%] | pest or weed control at 560 g/ha ([3]; 504 h) [%] | pest or weed control at 280 g/ha ([4]; 504 h) [%] | pest or weed control at 560 g/ha ([4]; 504 h) [%] | pest or weed control at 280 g/ha ([5]; 504 h) [%] | pest or weed control at 560 g/ha ([5]; 504 h) [%] | TGA Data (rate of weight loss, volatility) [6] [µg/min] | other results
O=C(COc1ccc(Cl)cc1Cl)OCCOC(=O)COc1ccc(Cl)cc1Cl [Compound B9] | 72.5 | 77.5 | 91 | 90 | 70 | 82.5 | 77.5 | 74 | 70 | 85 | 100 | 100 | 57.5 | 98.5 | 75 | 92.5 | 89.9 | 97.5 | 92.5 | 0.1482 | pest or weed control at 560 g/ha ([3]; 168 h): 57.5%; pest or weed control at 280 g/ha ([3]; 336 h): 77.5%; pest or weed control at 560 g/ha ([3]; 336 h): 70%; pest or weed control at 280 g/ha ([4]; 168 h): 75%; pest or weed control at 560 g/ha ([4]; 168 h): 72.3%; pest or weed control at 280 g/ha ([4]; 336 h): 86.5%; pest or weed control at 560 g/ha ([4]; 336 h): 86.6%; pest or weed control at 280 g/ha ([5]; 168 h): 82.5%; pest or weed control at 560 g/ha ([5]; 168 h): 77.5%; pest or weed control at 280 g/ha ([5]; 336 h): 94%; pest or weed control at 560 g/ha ([5]; 336 h): 95%
O=C(COc1ccc(Cl)cc1Cl)OCCCOC(=O)COc1ccc(Cl)cc1Cl [Compound B10] | 70 | 62.5 | 77.5 | 80 | 67.5 | 55 | 62.5 | 57.5 | 67.5 | 67.5 | 90 | 75 | 27.5 | 25 | 27.5 | 72.2 | 68 | 88.5 | 85 | 0.02488 | pest or weed control at 560 g/ha ([3]; 168 h): 22.5%; pest or weed control at 280 g/ha ([3]; 336 h): 25%; pest or weed control at 560 g/ha ([3]; 336 h): 32.5%; pest or weed control at 280 g/ha ([4]; 168 h): 62%; pest or weed control at 560 g/ha ([4]; 168 h): 58%; pest or weed control at 280 g/ha ([4]; 336 h): 64.5%; pest or weed control at 560 g/ha ([4]; 336 h): 69.9%; pest or weed control at 280 g/ha ([5]; 168 h): 77.5%; pest or weed control at 560 g/ha ([5]; 168 h): 72.5%; pest or weed control at 280 g/ha ([5]; 336 h): 75%; pest or weed control at 560 g/ha ([5]; 336 h): 90%
O=C(COc1ccc(Cl)cc1Cl)OCCCCCCOC(=O)COc1ccc(Cl)cc1Cl [Compound B12] | – | – | – | – | 62.5 | 62.5 | – | – | – | – | 100 | 100 | – | 55 | 65 | 82 | 82.9 | 96.5 | 90 | 0.2274 | –
O=C(COc1ccc(Cl)cc1Cl)OCCOCCOCCOC(=O)COc1ccc(Cl)cc1Cl [Compound B13] | 67.5 | 75 | 95 | 87.5 | 65 | 67.5 | 72.5 | 88.5 | 72.5 | 75 | 100 | 99 | 55 | 67.5 | 62.5 | 86 | 84.5 | 98.5 | 95 | 0.2318 | pest or weed control at 560 g/ha ([3]; 168 h): 45%; pest or weed control at 280 g/ha ([3]; 336 h): 62.5%; pest or weed control at 560 g/ha ([3]; 336 h): 57.5%; pest or weed control at 280 g/ha ([4]; 168 h): 72%; pest or weed control at 560 g/ha ([4]; 168 h): 75.7%; pest or weed control at 280 g/ha ([4]; 336 h): 83.6%; pest or weed control at 560 g/ha ([4]; 336 h): 82.6%; pest or weed control at 280 g/ha ([5]; 168 h): 80%; pest or weed control at 560 g/ha ([5]; 168 h): 82.5%; pest or weed control at 280 g/ha ([5]; 336 h): 96.5%; pest or weed control at 560 g/ha ([5]; 336 h): 98%
